In paper PMC6055880, “Virtual Fragment Screening Identification of a Quinoline‐5,8‐dicarboxylic Acid Derivative as a Selective JMJD3 Inhibitor” (Chemmedchem, 2018):

Columns and labels:
Assay type in all cases: biochemical
JMJD3 = JMJD3 (Homo sapiens, UniProt O15054); assay: AlphaScreen JMJD3 demethylase inhibition; conditions: for inhibition at 25 µM: compound at 25 μM
Source text: (§1) Compounds 4 and 5 also appreciably decrease enzyme activity by 65 % and 60 %, respectively. […] We proceeded to investigate the inhibitory activity of 3 further by evaluation of its IC50 value against JMJD3. The results highlighted a low micromolar activity of compound 3 against JMJD3 (Table 1). […] Similar outcomes were obtained for 3 versus JMJD2C and JMJD2D (Table 1). […] Relative to JMJD1A and FBXL11, we found a decrease in enzymatic activity (Table 1) toward Jarid1A and Jarid1B of 33 % and 26 % by 3.
(§2) 2,4-pyridine dicarboxylic acid (2,4-PC) is purchased from Acros Organics (New Jersey, […]
GSK J1 is purchased from Sigma Aldrich (Italy, Catalog number SML0709).
JIB-04 is purchased from Sigma-Aldrich (St. Louis, MO, Catalog number SML0808).
AlphaLISA anti-mIgG acceptor beads from PerkinElmer (Santa Clara, CA, Catalog number […]
AlphaLISA anti-rIgG acceptor beads from PerkinElmer (Santa Clara, CA, Catalog number […]
AlphaScreen Streptavidin-conjaugated donor beads from PerkinElmer (Santa Clara, CA, […]
Primary antibody 2 from BPS (Catalog number 52140B1).
Primary antibody 5 from BPS (Catalog number 52140E).
Primary antibody 6 from BPS (Catalog number 52140F).
Primary antibody 16-2 from BPS (Catalog number 52140P2).
Primary antibody 17-3 from BPS(Catalog number 52140Q3). […]
Biotinylated histone H3 peptide substrate (UTX and JMJD3) (BPS and Anaspec). […]
JMJD3 Assay Buffer from BPS. […]
4x Detection buffer from BPS (Catalog number 52301).
All of the enzymatic reactions were conducted at room temperature for 60 minutes in a 10 µl mixture containing assay buffer, histone H3 peptide substrate, demethylase enzyme, and the test compound. These 10 µl reactions were carried out in wells of 384-well Optiplate (PerkinElmer). The serial dilution of the compounds was first performed in 100% DMSO with the highest concentration at 1 mM. Each intermediate compound dilution (in 100% DMSO) will then get directly diluted 30x fold into assay buffer for 3.3x conc (DMSO). Enzyme only and blank only wells have a final DMSO concentration of 1%. From this intermediate step, 3 µl of compound is added to 4 µl of demethylase enzyme dilution is incubated for 30 minutes at room temperature. After this incubation, 3 µl of peptide substrate is added. The final DMSO concentration is 1%.
(§3) After enzymatic reactions, 5 µl of anti-Mouse Acceptor beads (PerkinElmer, diluted 1:500 with 1x detection buffer) or 5 µl of anti-Rabbit Acceptor beads (PerkinElmer, diluted 1:500 with 1x detection buffer) and 5 µl of Primary antibody (BPS, diluted 1:200 with 1x detection buffer) were added to the reaction mix. After brief shaking, plate was incubated for 30 minutes. Finally, 10 µl of AlphaScreen Streptavidin-conjugated donor beads (Perkin, diluted 1:125 with 1x detection buffer) were added. In 30 minutes, the samples were measured in AlphaScreen microplate reader (EnSpire Alpha 2390 Multilabel Reader, PerkinElmer).
For JMJD3, Donor and acceptor beads and primary antibody were incubated for 1 h,[9] for the remaining enzymes for 30’.
5 µL of AlphaScreen assay buffer containing EDTA (30 mM) and NaCl (800 mM) to stop the […]
Except for JMJD3, the experiments were performed by BPS Bioscience.
Enzyme activity assays were performed in duplicates at each concentration. The A-screen intensity data were analyzed and compared. In the absence of the compound, the intensity in each data set was defined as 100% activity. In the absence of enzyme, the intensity in each data set was defined as 0% activity. The values of % activity versus a series of compound concentrations were then plotted using non-linear regression analysis of Sigmoidal dose-response curve generated with the equation Y=B+(T-B)/1+10((LogEC50-X)×Hill Slope), where Y=percent activity, B=minimum percent activity, T=maximum percent activity, X= l ogarithm of compound and Hill Slope=slope factor or Hill coefficient. The IC 50 value was determined by the concentration causing a half -maximal percent activity.

Jarid1A = target: T1, Jarid1A (Homo sapiens, UniProt P29375); assay: AlphaScreen Jarid1A demethylase inhibition (selectivity)
T1 construct: purchased BPS Bioscience (contract assay)
T1 sequence (P29375 whole entry): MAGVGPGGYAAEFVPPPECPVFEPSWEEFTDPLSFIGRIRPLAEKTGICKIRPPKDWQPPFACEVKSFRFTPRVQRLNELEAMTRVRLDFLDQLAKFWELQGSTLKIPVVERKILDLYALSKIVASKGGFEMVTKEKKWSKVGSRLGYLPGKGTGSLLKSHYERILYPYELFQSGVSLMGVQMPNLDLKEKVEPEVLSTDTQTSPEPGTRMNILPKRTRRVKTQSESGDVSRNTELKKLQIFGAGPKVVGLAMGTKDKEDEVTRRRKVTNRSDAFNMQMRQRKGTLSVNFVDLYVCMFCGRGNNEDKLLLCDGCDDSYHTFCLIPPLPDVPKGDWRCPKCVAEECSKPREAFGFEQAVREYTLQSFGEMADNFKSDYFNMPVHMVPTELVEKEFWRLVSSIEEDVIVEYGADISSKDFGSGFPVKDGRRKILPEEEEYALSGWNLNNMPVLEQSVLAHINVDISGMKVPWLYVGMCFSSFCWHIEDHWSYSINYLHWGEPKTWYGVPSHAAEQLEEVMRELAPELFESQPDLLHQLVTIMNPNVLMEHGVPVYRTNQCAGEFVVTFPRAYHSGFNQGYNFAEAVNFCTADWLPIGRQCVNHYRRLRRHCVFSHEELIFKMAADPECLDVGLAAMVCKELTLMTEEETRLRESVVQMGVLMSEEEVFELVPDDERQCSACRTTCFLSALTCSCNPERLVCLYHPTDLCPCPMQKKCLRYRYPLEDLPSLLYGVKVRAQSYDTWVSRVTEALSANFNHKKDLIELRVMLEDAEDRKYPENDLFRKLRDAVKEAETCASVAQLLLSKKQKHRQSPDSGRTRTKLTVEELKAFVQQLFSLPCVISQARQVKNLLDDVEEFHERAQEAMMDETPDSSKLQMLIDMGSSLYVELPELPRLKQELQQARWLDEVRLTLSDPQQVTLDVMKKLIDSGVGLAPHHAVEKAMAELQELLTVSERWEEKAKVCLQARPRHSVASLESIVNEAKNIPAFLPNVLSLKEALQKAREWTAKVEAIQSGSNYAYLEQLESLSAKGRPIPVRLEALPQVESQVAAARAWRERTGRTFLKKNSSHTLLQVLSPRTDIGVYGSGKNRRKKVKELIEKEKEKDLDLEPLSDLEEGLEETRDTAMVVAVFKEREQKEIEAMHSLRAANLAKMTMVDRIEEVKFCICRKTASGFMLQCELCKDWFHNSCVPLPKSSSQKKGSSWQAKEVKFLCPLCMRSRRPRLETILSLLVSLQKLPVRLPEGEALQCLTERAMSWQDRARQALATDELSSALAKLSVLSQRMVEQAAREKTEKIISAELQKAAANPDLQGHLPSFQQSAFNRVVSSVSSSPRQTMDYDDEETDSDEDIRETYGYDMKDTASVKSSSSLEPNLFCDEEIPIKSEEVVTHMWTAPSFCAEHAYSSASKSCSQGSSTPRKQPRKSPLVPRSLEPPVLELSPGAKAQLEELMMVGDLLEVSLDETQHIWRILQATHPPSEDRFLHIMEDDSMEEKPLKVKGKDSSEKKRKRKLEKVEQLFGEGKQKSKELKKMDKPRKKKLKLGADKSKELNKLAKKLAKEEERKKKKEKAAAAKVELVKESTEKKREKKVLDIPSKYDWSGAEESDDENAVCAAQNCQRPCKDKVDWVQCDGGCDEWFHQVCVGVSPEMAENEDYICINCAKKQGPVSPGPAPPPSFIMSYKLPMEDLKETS
Source text: as §1, §2
(§4) GSK J1 is purchased from Sigma Aldrich (Italy, Catalog number SML0709). […]
as §3, with “After brief shaking, plate was incubated for 30 minutes. Finally, 10 µl of AlphaScreen Streptavidin-conjugated donor beads (Perkin, diluted 1:125 with 1x detection buffer) were added.” left out, “PerkinElmer). […]” for “PerkinElmer).”
(§5) Enzyme activity assays were performed in duplicates at each concentration. The A-screen intensity data were analyzed and compared. […] The IC 50 value was determined by the concentration causing a half -maximal percent activity.

Jarid1B = target: T2, Jarid1B (Homo sapiens, UniProt Q9UGL1); assay: AlphaScreen Jarid1B demethylase inhibition (selectivity)
T2 construct: purchased BPS Bioscience (contract assay)
T2 sequence (Q9UGL1 whole entry): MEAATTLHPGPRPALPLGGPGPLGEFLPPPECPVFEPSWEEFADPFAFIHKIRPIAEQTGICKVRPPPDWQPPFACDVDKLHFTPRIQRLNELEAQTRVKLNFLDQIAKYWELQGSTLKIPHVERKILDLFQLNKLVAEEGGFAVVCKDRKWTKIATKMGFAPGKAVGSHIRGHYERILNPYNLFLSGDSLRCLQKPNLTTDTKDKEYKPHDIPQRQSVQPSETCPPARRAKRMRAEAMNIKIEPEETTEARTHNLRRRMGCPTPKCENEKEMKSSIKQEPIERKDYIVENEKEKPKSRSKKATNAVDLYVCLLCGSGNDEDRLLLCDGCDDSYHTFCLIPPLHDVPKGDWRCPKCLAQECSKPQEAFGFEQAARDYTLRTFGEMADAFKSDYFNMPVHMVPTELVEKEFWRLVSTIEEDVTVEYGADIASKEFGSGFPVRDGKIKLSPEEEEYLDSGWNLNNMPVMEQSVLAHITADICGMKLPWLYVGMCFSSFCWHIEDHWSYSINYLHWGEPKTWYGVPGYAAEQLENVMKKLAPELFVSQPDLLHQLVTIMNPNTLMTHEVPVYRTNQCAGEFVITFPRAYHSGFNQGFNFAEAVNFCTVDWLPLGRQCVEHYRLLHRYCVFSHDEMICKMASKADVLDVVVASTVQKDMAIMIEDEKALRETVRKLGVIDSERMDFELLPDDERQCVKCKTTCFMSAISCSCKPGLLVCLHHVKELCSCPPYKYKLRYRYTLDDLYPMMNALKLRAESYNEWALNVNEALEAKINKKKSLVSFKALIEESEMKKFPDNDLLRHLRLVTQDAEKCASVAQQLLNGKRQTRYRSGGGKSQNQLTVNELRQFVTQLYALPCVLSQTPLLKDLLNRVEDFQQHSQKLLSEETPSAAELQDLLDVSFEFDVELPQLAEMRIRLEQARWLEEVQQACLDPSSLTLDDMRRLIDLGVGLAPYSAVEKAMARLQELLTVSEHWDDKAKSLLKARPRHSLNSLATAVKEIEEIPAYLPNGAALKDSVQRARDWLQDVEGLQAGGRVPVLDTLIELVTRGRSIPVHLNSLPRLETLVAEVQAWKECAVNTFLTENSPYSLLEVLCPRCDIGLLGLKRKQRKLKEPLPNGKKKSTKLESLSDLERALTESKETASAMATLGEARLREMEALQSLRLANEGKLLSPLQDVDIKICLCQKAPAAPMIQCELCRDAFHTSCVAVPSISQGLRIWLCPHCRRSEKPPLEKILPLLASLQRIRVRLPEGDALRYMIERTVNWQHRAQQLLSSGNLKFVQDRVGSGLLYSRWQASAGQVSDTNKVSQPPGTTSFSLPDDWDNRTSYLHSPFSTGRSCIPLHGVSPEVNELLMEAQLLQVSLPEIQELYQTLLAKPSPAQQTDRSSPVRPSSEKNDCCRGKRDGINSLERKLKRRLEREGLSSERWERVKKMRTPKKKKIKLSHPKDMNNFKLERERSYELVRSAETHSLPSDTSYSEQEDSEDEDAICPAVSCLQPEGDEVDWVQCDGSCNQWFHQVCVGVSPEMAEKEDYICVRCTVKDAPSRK
Source text: as §1, §2, §4
as §3, with “After brief shaking, plate was incubated for 30 minutes. Finally, 10 µl of AlphaScreen Streptavidin-conjugated donor beads (Perkin, diluted 1:125 with 1x detection buffer) were added.” left out, “PerkinElmer). […]” for “PerkinElmer).”
as §5

JMJD1A = target: T3, JMJD1A (Homo sapiens, UniProt Q9Y4C1); assay: AlphaScreen JMJD1A demethylase inhibition (selectivity)
T3 construct: purchased BPS Bioscience (contract assay)
T3 sequence (Q9Y4C1 1-1321): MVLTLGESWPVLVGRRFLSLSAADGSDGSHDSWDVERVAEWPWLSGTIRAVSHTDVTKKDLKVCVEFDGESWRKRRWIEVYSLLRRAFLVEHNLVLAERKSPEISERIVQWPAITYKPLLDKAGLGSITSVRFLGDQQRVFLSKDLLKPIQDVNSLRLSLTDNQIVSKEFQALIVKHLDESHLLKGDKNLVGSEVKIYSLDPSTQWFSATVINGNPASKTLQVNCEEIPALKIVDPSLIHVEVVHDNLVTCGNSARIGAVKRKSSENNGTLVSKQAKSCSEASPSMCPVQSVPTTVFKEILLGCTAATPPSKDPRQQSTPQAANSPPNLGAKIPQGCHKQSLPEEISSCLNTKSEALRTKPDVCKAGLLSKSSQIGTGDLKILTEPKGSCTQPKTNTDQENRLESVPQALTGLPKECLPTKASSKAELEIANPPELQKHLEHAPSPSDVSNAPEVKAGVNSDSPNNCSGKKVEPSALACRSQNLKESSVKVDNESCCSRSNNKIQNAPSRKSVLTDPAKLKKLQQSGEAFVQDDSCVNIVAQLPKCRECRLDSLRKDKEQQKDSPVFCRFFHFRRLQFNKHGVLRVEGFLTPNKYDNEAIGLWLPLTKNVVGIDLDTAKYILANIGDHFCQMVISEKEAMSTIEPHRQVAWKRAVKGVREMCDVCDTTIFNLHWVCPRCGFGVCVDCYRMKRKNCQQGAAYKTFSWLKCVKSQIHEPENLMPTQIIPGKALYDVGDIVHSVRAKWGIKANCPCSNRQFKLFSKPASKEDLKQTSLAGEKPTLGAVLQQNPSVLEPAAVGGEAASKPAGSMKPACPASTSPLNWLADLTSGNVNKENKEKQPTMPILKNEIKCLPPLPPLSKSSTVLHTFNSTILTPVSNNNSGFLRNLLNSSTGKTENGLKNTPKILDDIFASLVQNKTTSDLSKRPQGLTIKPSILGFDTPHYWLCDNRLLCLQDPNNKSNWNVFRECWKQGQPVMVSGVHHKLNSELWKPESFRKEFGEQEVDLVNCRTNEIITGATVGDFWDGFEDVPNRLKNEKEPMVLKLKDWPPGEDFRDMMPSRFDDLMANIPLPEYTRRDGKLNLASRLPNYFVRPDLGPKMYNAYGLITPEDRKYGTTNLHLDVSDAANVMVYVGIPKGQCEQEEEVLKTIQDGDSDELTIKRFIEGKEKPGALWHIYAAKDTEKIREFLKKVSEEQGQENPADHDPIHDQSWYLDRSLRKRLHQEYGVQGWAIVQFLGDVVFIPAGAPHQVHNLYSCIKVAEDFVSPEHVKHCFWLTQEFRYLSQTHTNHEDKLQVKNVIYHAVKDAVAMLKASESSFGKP
Source text: as §1, §2, §4
as §3, with “After brief shaking, plate was incubated for 30 minutes. Finally, 10 µl of AlphaScreen Streptavidin-conjugated donor beads (Perkin, diluted 1:125 with 1x detection buffer) were added.” left out, “PerkinElmer). […]” for “PerkinElmer).”
as §5

UTX = target: T4, UTX (Homo sapiens, UniProt O15550); assay: AlphaScreen UTX demethylase inhibition (selectivity); conditions: at 10 μM; NI = no significant inhibition at 10 μM
T4 construct: purchased BPS Bioscience (contract assay)
Source text: as §1, §2, §4
as §3, with “After brief shaking, plate was incubated for 30 minutes. Finally, 10 µl of AlphaScreen Streptavidin-conjugated donor beads (Perkin, diluted 1:125 with 1x detection buffer) were added.” left out, “PerkinElmer). […]” for “PerkinElmer).”
as §5

FBXL11 = target: T5, FBXL11 (Homo sapiens, UniProt Q9Y2K7); assay: AlphaScreen FBXL11 demethylase inhibition (selectivity)
T5 construct: purchased BPS Bioscience (contract assay)
T5 sequence (Q9Y2K7 1-1162): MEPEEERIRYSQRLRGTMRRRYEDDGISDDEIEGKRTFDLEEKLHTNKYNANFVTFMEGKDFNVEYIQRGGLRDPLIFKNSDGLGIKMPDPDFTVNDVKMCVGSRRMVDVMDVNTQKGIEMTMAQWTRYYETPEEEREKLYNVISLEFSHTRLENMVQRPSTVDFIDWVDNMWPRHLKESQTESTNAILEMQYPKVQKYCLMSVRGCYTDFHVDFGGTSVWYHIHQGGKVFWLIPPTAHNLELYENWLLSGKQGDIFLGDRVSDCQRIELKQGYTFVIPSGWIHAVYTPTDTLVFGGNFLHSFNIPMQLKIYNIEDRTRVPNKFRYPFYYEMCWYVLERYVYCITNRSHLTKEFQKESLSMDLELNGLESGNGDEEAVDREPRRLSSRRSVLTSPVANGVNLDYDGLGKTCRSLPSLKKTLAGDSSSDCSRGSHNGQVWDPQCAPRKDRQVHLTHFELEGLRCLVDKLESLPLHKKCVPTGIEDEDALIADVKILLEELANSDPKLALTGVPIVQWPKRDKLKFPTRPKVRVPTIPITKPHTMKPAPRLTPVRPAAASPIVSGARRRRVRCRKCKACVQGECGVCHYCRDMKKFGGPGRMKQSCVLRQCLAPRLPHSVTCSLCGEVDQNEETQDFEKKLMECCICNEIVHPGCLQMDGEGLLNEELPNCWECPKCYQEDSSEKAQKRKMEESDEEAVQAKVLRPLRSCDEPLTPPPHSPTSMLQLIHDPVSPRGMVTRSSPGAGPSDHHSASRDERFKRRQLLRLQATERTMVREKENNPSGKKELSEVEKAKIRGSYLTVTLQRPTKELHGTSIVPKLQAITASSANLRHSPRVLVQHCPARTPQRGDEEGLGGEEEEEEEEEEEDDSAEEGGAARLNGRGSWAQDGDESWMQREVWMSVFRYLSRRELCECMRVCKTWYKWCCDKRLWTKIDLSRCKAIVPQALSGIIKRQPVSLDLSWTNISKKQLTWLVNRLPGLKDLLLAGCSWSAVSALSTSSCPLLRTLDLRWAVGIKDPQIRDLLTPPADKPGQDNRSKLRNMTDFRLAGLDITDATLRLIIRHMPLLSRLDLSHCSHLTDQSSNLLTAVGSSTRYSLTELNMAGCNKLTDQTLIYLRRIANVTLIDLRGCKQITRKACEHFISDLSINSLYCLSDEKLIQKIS
Source text: as §1, §2, §4
as §3, with “After brief shaking, plate was incubated for 30 minutes. Finally, 10 µl of AlphaScreen Streptavidin-conjugated donor beads (Perkin, diluted 1:125 with 1x detection buffer) were added.” left out, “PerkinElmer). […]” for “PerkinElmer).”
as §5

JMJD3, sequence (O15054 whole entry): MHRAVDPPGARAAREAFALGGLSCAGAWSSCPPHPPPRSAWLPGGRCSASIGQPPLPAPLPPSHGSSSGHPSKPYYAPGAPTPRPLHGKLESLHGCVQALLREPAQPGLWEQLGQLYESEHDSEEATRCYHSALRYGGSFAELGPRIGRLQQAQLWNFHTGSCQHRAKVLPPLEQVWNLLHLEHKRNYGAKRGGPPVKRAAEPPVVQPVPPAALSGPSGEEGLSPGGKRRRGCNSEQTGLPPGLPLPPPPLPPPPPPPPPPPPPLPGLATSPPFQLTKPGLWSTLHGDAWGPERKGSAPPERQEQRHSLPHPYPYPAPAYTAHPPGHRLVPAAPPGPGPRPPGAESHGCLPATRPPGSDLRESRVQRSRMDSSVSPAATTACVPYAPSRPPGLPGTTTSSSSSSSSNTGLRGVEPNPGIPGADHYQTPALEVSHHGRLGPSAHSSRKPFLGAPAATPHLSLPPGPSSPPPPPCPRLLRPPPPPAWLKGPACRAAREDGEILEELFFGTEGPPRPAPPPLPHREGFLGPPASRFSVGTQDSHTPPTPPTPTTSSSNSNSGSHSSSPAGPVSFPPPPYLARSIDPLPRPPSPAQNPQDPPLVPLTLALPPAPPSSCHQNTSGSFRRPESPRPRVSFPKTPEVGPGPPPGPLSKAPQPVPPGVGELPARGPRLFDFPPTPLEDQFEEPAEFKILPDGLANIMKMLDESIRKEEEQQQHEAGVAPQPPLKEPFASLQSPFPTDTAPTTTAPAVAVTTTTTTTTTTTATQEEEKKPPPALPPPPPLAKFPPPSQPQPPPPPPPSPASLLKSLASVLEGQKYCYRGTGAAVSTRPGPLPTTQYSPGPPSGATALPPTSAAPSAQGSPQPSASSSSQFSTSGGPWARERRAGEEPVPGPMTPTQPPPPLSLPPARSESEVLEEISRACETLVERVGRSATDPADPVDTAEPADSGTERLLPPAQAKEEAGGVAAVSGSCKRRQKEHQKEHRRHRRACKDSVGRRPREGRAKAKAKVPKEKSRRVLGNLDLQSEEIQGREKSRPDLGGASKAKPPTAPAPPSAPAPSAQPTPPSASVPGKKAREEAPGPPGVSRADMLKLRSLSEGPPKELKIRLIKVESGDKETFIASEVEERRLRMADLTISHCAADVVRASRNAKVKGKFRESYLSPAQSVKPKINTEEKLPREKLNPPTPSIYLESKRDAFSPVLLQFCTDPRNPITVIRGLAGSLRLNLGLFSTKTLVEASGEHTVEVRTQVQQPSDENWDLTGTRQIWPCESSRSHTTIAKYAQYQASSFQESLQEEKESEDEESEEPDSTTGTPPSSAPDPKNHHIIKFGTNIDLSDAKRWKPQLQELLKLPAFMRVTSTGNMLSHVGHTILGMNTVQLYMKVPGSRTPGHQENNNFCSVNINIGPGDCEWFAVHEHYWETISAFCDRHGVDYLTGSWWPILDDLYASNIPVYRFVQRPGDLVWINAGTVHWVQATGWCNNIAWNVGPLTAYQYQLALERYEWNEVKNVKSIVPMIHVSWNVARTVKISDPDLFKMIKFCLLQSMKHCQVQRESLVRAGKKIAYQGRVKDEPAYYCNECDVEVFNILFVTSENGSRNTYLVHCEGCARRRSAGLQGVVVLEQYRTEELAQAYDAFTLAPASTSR

**Q.** For NS(=O)(=O)c1ccc(-c2cnc3c(C(=O)O)ccc(C(=O)O)c3c2)cc1 [Compound 4], which inhibition at 25 µM (JMJD3) is on record?
**A.** 65%

**Q.** For COc1cc(-c2cnc3c(C(=O)O)ccc(C(=O)O)c3c2)c(OC)nn1 [Compound 6], which inhibition at 25 µM (JMJD3) is on record?
**A.** ~25%

**Q.** With O=C(O)c1ccc(-c2cnc3c(C(=O)O)ccc(C(=O)O)c3c2)s1 [Compound 5] as the compound, how does the inhibition at 25 µM (JMJD3) read?
**A.** 60%

**Q.** Which results are given for COc1ncc(-c2cnc3c(C(=O)O)ccc(C(=O)O)c3c2)c(OC)n1 [Compound 3, 3‐(2,4‐dimethoxypyrimidin‐5‐yl)quinoline‐5,8‐dicarboxylic acid]?
**A.** inhibition at 10 µM (Jarid1A; at 10 μM, read-out: Percent Inhibition Jarid1A): 33%; IC50 (Jarid1A; footnote b of Table 1): > 10 µM; inhibition at 25 µM (JMJD3): 90%; IC50 (JMJD3; read-out: IC50±SEM JMJD3): 1.52 ± 0.5 µM; inhibition at 10 µM (Jarid1B; at 10 μM, read-out: Percent Inhibition Jarid1B): 26%; IC50 (Jarid1B; footnote b of Table 1): > 10 µM; inhibition at 10 µM (JMJD1A; at 10 μM, read-out: Percent Inhibition JMJD1A): 12%; IC50 (JMJD1A; footnote b of Table 1): > 10 µM; Percent Inhibition UTX (UTX): no significant inhibition; inhibition at 10 µM (FBXL11; at 10 μM, read-out: Percent Inhibition FBXL11): 15%; IC50 (FBXL11; footnote b of Table 1): > 10 µM

**Q.** How did the inhibition at 25 µM (JMJD3) turn out when COc1cc(-c2cnc3c(C(=O)O)ccc(C(=O)O)c3c2)ccc1F [Compound 7] was run?
**A.** ~12%
